Data on 2 compounds can be found in US20260151451A1, “CYCLIC PEPTIDE DERIVATIVE COMPOSITION FOR TREATING OR PREVENTING CENTRAL NERVOUS SYSTEM INJURY/DISEASE” (DKS Co. Ltd., priority 2022, published 2026).

In test [1] the test system is transient focal cerebral ischemia model rat. The experiment in a line: Cerebral infarct volume in transient focal cerebral ischemia model rat (Example 33; test substance given immediately after MCA recanalization). To be noted: for Cerebral infarct volume (mm^3): tail vein, brain extracted 24 hours after MCA occlusion, mean ± S.E. of 10 rats; for Individual data of the cerebral infarct volume (mm^3): individual animals. It counts as in vivo. The method, then: The activity of the compound of the present disclosure was evaluated according to the following procedure.
Compound 9 (aqueous solution (50 mg/mL) prepared by dissolving a white powder in a saturated NaHCO3 solution)
Edaravone (trade name: Radicut (registered trademark) Mitsubishi Tanabe Pharma Corporation) Vehicle
Japanese Pharmacopoeia physiological saline (hereinafter, physiological saline) (Otsuka Pharmaceutical Factory, Inc.)
Rat (strain: Crl: CD (SD)) (THE JACKSON LABORATORY JAPAN, INC.)
• Intravenous administration
Using a syringe (1 mL, Terumo Corporation) equipped with an injection needle (25G×5/8, Terumo Corporation), tail vein administration was performed immediately after MCA recanalization.
Using a syringe (1 mL, Terumo Corporation) equipped with an injection needle (25G×5/8, Terumo Corporation), tail vein administration was performed immediately after MCA recanalization and 30 minutes after MCA recanalization (actual result: ±0 minutes from the specified time, allowable range: ±3 minutes from the specified time).
• 0.2 mg/kg and 2 mg/kg
• (1) The received test substance was thawed and then divided into 4 brown glass bottles by 0.1 mL. • (2) The test substances divided into small portions were stored frozen (measured value: −24.4 to −22.6° C., allowable range: −35 to −10° C.) until use in preparation. • (3) One test substance divided into small portions for each day of administration was thawed, and 4.9 mL of physiological saline was added to prepare a 1 mg/mL administration solution . . . I • (4) From I, 0.5 mL was dispensed into a brown glass bottle, and 4.5 mL of physiological saline was added to prepare a 0.1 mg/mL administration solution. • (5) It was prepared before use. • (6) The remainder after administration was discarded.
(§1) The rat was fixed in a supine position under 2% isoflurane inhalation anesthesia (Lot No.: 234KAP, Mylan Inc., laughing gas:oxygen=7:3). A thermometer probe connected to a digital thermometer (TX1002, Yokogawa Meters & Instruments Corporation) was inserted into the rectum to perform thermoregulation during surgery, and changes in rectal temperature before and after surgery were monitored. As a result, since a decrease in rectal temperature was not observed in any rat, heating was not performed. The right common carotid artery, external carotid artery, and internal carotid artery were exposed, and the common carotid artery and external carotid artery were ligated with sutures. A nylon yarn (plug) No. 4 previously coated with silicon (Kulzer Japan Co., Ltd.) and cut to a length of 19 mm was inserted from the bifurcation of the external carotid artery and the internal carotid artery to occlude the right MCA. After MCA occlusion, the neck skin was sutured and released from anesthesia. Flexion of the contralateral forelimb on the occluded side was confirmed 30 minutes after MCA occlusion. Under 2% isoflurane inhalation anesthesia, the right common carotid artery, the right external carotid artery, and the right internal carotid artery were exposed again, the plug was removed 2 hours after MCA occlusion, and the blood flow of the right MCA was resumed. After the blood flow of the right MCA was resumed, ligation of the right internal carotid artery and suturing of the neck skin were performed to awaken the animal from anesthesia. Note that benzylpenicillin potassium (Lot No.: 00904, Meiji Seika Pharma Co., Ltd.) was administered intramuscularly at a dosage of 20,000 units/kg before the MCA occlusion surgery.
24 hours after MCA occlusion, the animal was decapitated under 2% isoflurane inhalation anesthesia (Lot No.: 234KAP, Mylan Inc., laughing gas:oxygen=7:3), and the whole brain was extracted to prepare a brain section having a thickness of 2 mm. Referring to Paxinos and Watson brain atlas [axinos G. and Watson C. The rat brain in stereotaxic coordinates, second edition. […]

The test system is the same in test [2]. The experiment in a line: Cerebral infarct volume in transient focal cerebral ischemia (MCA occlusion/recanalization) model rat. In kind it is in vivo. The note with it: for Cerebral infarct volume compared with the vehicle group: Dunnett's multiple comparison test; for Cerebral infarct volume: group mean ± S.E., n=10, brain extracted 24 hours after MCA occlusion.
Excerpt: as §1, with “248KKY, Viatris Pharmaceutical Co., Ltd.,” for “234KAP, Mylan Inc.,”
24 hours after MCA occlusion, the animal was decapitated under 2% isoflurane inhalation anesthesia (Lot No.: 248KKY, Viatris Pharmaceutical Co., Ltd., laughing gas:oxygen=7:3), and the whole brain was extracted to prepare a brain section having a thickness of 2 mm. Referring to Paxinos and Watson brain atlas [Paxinos G. and Watson C. The rat brain in stereotaxic coordinates, second edition. San Diego, New York, Boston, London, Sydney, Tokyo, Toronto: Academic Press Inc.; 1986.], the brain sections were set at positions where coronal planes of 4 mm anterior to Bregma, 2 mm anterior to Bregma, above Bregma, 2 mm posterior to Bregma, 4 mm posterior to Bregma, and 6 mm posterior to Bregma were obtained. The brain sections were immersed in a 1% (W/V) 2,3,5-triphenyltetrazolium chloride (Lot No.: M7B5587, Nacalai Tesque Inc.) solution at room temperature, stained, and photographed. From the obtained photograph, brain sections (infarction site and non-infarction site) were traced on an OHP sheet. The traced image was captured by a scanner (Seiko Epson Corporation), image analysis was performed using WinROOF2015 (MITANI CORPORATION), a cerebral infarct area was obtained as a measured value, and a cerebral infarct volume between 4 mm anterior to Bregma and 6 mm posterior to Bregma was calculated from the obtained value.
[formula] • V: Cerebral infarct volume • a: Cerebral infarct area on section of 4 mm anterior to Bregma • b: Cerebral infarct area on section of 2 mm anterior to Bregma • c: Cerebral infarct area on section of Bregma • d: Cerebral infarct area on section of 2 mm posterior to Bregma • e: Cerebral infarct area on section of 4 mm posterior to Bregma • f: Cerebral infarct area on section of 6 mm posterior to Bregma
• Calculation of cerebral infarct volume (mm^3)
The employed data were expressed as a mean±standard error.
The following combinations were performed.

Values joined by “and” are separate entries in the source; they are usually repeats but may differ in a detail not shown here. Identical values can stand only once. “Also recorded” adds a separate entry of the source.

As for `CC[C@@]1(C)Oc2cc(ccc2O)C[C@H](NC)C(=O)N[C@@H](C(C)C)C(=O)N[C@@H]1C(=O)N[C@@H](CC(=O)O)C(=O)O` [Compound 9], the “Cerebral infarct volume (mm^3)” value in test [1] (Compound 9 0.2 mg/kg, immediately after MCA recanalization, 2 hours MCA occlusion, 0.2 mg/kg) is 336.9±14.2 mm^3 and 336.9 mm^3; in test [1] (Compound 9 2 mg/kg, immediately after MCA recanalization, 2 hours MCA occlusion, 2 mg/kg) it was 301.8±12.8 mm^3 and 301.8 ± 12.8 ^** mm^3 and 301.8 mm^3. In addition, the “Statistical difference of cerebral infarct volume from the vehicle group (Dunnett's multiple comparison test)” value in test [1] (Compound 9 2 mg/kg i.v.) is “a statistically significant difference was observed in the 2 mg/kg group”. Further, the “Cerebral infarct reduction action: cerebral infarct volume compared with the vehicle group” value in test [1] (Compound 9 groups, 0.2 mg/kg and 2 mg/kg i.v.) was “all showed low values; also recorded: has an ameliorating effect on cerebral infarct after cerebrovascular disorder”. Further, the “Individual data of the cerebral infarct volume (mm^3)” value in test [1] (Compound 9 0.2 mg/kg group (n = 10), 0.2 mg/kg) was 341.9 mm^3 and 350.2 mm^3 and 331.8 mm^3 and 366.5 mm^3 and 372.7 mm^3 and 219.1 mm^3 and 318.3 mm^3 and 339.3 mm^3 and 369.8 mm^3 and 359.8 mm^3; in test [1] (Compound 9 2 mg/kg group (n = 10), 2 mg/kg), 264.4 mm^3 and 343.3 mm^3 and 342.4 mm^3 and 374.1 mm^3 and 279.7 mm^3 and 273.1 mm^3 and 293.4 mm^3 and 251.2 mm^3 and 316.6 mm^3 and 279.6 mm^3. The “Cerebral infarct volume compared with the vehicle group” value is given as “ameliorating effect on cerebral infarct” in test [2] (administered 30 minutes after MCA recanalization) and “improvement tendency” in test [2] (administered 1 hour after MCA recanalization, p value=0.0525). Also, the Cerebral infarct volume in test [2] (2 mg/kg administered 30 minutes after MCA reperfusion) was 250.0±20.5 mm^3 and 250.0 ± 20.5 * mm^3 and 250.0 mm^3; in test [2] (2 mg/kg administered 1 hour after MCA reperfusion) it was 260.4±13.9 mm^3 and 260.4 mm^3. Moreover, the “Cerebral infarct volume, individual data” value was 254.3 mm^3 and 319.8 mm^3 and 274.6 mm^3 and 210.2 mm^3 and 133.9 mm^3 and 192.3 mm^3 and 272.2 mm^3 and 296.0 mm^3 and 201.4 mm^3 and 345.5 mm^3 in test [2] (individual animals Nos. 202-214, administered 30 minutes after MCA reperfusion); 253.1 mm^3 and 243.0 mm^3 and 355.2 mm^3 and 220.7 mm^3 and 261.4 mm^3 and 250.7 mm^3 and 192.0 mm^3 and 256.3 mm^3 and 272.3 mm^3 and 299.0 mm^3 in test [2] (individual animals Nos. 301-314, second Compound 9 group (head prints 30 minutes after MCA reperfusion; mean matches the 1 hour group)).

On to `CC1=NN(c2ccccc2)C(=O)C1` [Edaravone, reference compound], for which the “Cerebral infarct volume compared with the vehicle group (Student's t-test)” value in test [1] (Edaravone 3 mg/kg per dose i.v., twice) was “showed low values, and a statistically significant difference was observed; also recorded: showed a lower value than that of the vehicle group, and a statistically significant difference was observed”. Also, in test [1] (Edaravone 3 mg/kg per dose, immediately after and 30 minutes after MCA recanalization), the “Cerebral infarct volume (mm^3)” value is 292.8±14.2 mm^3 and 292.8 ± 14.2 ^## mm^3 and 292.8 mm^3. In addition, the “Individual data of the cerebral infarct volume (mm^3)” value in test [1] (Edaravone 3 mg/kg per dose group (n = 10)) was 248.4 mm^3 and 324.8 mm^3 and 282.1 mm^3 and 375.0 mm^3 and 308.0 mm^3 and 319.8 mm^3 and 217.2 mm^3 and 299.1 mm^3 and 253.8 mm^3. The Cerebral infarct volume in test [2] (Edaravone group 3 mg/kg) is 232.2±14.6 mm^3 and 232.2 ± 14.6 ^## mm^3 and 232.2 mm^3. Moreover, in test [2] (individual animals Nos. 401-414, Edaravone group), the “Cerebral infarct volume, individual data” value is 140.7 mm^3 and 218.3 mm^3 and 221.0 mm^3 and 170.0 mm^3 and 231.1 mm^3 and 268.2 mm^3 and 268.9 mm^3 and 278.6 mm^3 and 268.4 mm^3 and 257.0 mm^3.
